Tested on: patients suffering major depressive disorder
Test: open-label desvenlafaxine treatment of MDD outpatients, HDRS assessed every two weeks
Type: in vivo, human
Description: A […] clinical trial was performed to examine the clinical validity of a five gene, combinatorial, pharmacogenetic-based antidepressant dosing support tool for desvenlafaxine dosing. Participants were self-identified Caucasian outpatients aged 18 years and older with a principal DSM-5 diagnosis of MDD (semi-structured psychiatrist assessment) and a 17-item Hamilton Depression Rating Scale (HDRS) score greater than or equal to 18. Participants with other active psychiatric diagnoses were excluded, specifically those suffering with adjustment disorder with depressed mood, persistent depressive disorder, and subjects with a principal clinical diagnosis of a personality disorder. Additional exclusion criteria included pregnancy or breastfeeding, hepatic or renal impairments, co-prescription of known UGT1A1 or ABCB1 inducers/inhibitors (e.g. St John's Wort, valproic acid), regular grapefruit juice consumption, and current smoking which may influence appropriate dosing. A total of 131 individuals were screened for eligibility criteria. […] All participants received desvenlafaxine in an open-label manner during the 10-week study period. At baseline, age, sex, duration of the current depressive episode, and number of depressive episodes was recorded. […] Symptom severity was assessed at baseline and every two-weeks thereafter during the study period with the HDRS. […]

CN(C)CC(c1ccc(O)cc1)C1(O)CCCCC1 (centres unmarked) [desvenlafaxine]
participants achieved symptom remission (HDRS score of 7 or less by week 10) (after 10 weeks of desvenlafaxine treatment, 119 MDD participants, dose adjusted every two weeks): 80% | greater than 50% reduction in HDRS from baseline (among the 24 participants who did not achieve symptom remission by week 10): 42%

From patent US20180105876A1, “MEDICATION DOSING REPORT” (BAYCREST TECHNOLOGY PTY LTD, priority 2015, published 2018)
